Several values for one entry are separate records, joined by “and”; a condition that tells them apart may be missing. Identical values can stand only once.
Key:
HIV-1NL4-3 Q67H/N74D CA = assay: microbe, parasite or virus in culture; format: cell-based; settings: for EC50: Human immunodeficiency virus 1, MT4
HIV-1(M66I CA) = format: cell-based; settings: early stage antiviral activity
HIV-1NL4-3 Q67H CA = assay: microbe, parasite or virus in culture; format: cell-based; settings: for EC50: Human immunodeficiency virus 1, MT4
HIV-1NL4-3 Q67H/K70R CA = assay: microbe, parasite or virus in culture; format: cell-based; settings: for EC50: Human immunodeficiency virus 1, MT4, HIV-1NL4-3 Q67H/K70R CA, MT-4 cells, mean ± SD
[1] = target: T1, cross-linked HIV-1 CA(Q67H/N74D) hexamer (Human immunodeficiency virus type 1 group M subtype B, UniProt P12493, A146C/E177C/M317A/N206D/Q199H/W316A); assay: biochemical; format: binding
T1 construct: Expression, purification and assembly of recombinant CA; made in house; host or cells: E. coli BL21-DE3 (pET3a)

[2] = target: cross-linked HIV-1 CA(WT) hexamer (Human immunodeficiency virus type 1 group M subtype B, UniProt P12493, A146C/E177C/M317A/W316A); assay: SPR binding to cross-linked CA(WT) hexamers
HIV-1NL4-3 WT CA = assay: microbe, parasite or virus in culture; format: cell-based; settings: Human immunodeficiency virus 1, MT4
MT4 cells = assay: in vitro; format: cell-based; settings: MT4 cells, 2 days, CellTiter-Glo
Procedure: (§1) MT4 cells in complete RPMI were mixed with the indicated concentrations of compounds on 96-well plates (1 × 10^4 cells per well). Cells were kept in a humidified 37°C incubator for 2 days. The effect of test compounds on cell viability was measured using CellTiter-Glo (Promega, G7570).

in vitro = format: cell-based; settings: human; from cytotoxicity (Fig. S7) and antiviral activity (Fig. 5C); read-out: selectivity index
Procedure: as §1

HIV-1NL4-3 N74D CA = assay: microbe, parasite or virus in culture; format: cell-based; settings: for EC50: Human immunodeficiency virus 1, MT4
[3] = target: cross-linked HIV-1 CA(Q67H) hexamer (Human immunodeficiency virus type 1 group M subtype B, UniProt P12493, A146C/E177C/M317A/Q199H/W316A); assay: SPR binding to cross-linked CA(Q67H) hexamers
[4] = system: HIV-1 reverse transcription; design: method as in PMID 32612233, PMID 31501601, PMID 33060363; settings: during virus ingress; cited from earlier work
HIV-1 nuclear import = system: HIV-1 nuclear import; design: method as in PMID 32612233, PMID 31501601, PMID 33060363; settings: during virus ingress; cited from earlier work
HIV-1 integration = system: HIV-1 integration; design: method as in PMID 32612233, PMID 31501601, PMID 33060363; settings: during virus ingress; cited from earlier work
[5] = target: cross-linked HIV-1 CA(N74D) hexamer (Human immunodeficiency virus type 1 group M subtype B, UniProt P12493, A146C/E177C/M317A/N206D/W316A); assay: SPR binding to cross-linked CA(N74D) hexamers
[6] = WT compared to WT CA (reference)

SMILES: CC(C)(C#Cc1ccc(-c2ccc(Cl)c3c(NS(C)(=O)=O)nn(CC(F)(F)F)c23)c([C@H](Cc2cc(F)cc(F)c2)NC(=O)Cn2nc(C(F)(F)F)c3c2CCCC3)n1)S(C)(=O)=O [KFA-012]
- Fold increase of KFA-012 potency versus LEN potency (HIV-1NL4-3 Q67H/N74D CA; HIV-1NL4-3 Q67H/N74D CA): 2.6 fold
- EC50 (HIV-1NL4-3 Q67H/N74D CA): 9.18 nM
- susceptibility of the virus to the inhibitor (HIV-1(M66I CA)): fully resistant
- Fold increase of KFA-012 potency versus LEN potency (HIV-1NL4-3 Q67H CA; HIV-1NL4-3 Q67H CA): 1.8 fold
- EC50 (HIV-1NL4-3 Q67H CA): 0.335 ± 0.01 nM
- Fold increase of KFA-012 potency versus LEN potency (HIV-1NL4-3 Q67H/K70R CA; HIV-1NL4-3 Q67H/K70R CA): ~ 1.7 fold
- EC50 (HIV-1NL4-3 Q67H/K70R CA): 0.883 ± 0.17 nM
- improved binding affinity compared with parental LEN ([1]; CA(Q67H/N74D) hexamer, SPR): ~ 2 fold
- improved binding affinity compared with parental LEN ([2]; CA(WT) hexamer, SPR): ~ 2 fold
- EC50 (HIV-1NL4-3 WT CA): 0.071 ± 0.006 nM
- compound concentrations with adverse effects on cell viability (MT4 cells): > 3000 nM
- concentration up to which no cytotoxicity was observed (MT4 cells): up to 781 nM
- selectivity ratio at 2 days (in vitro): > 10000
- EC50 (HIV-1NL4-3 N74D CA): 0.633 ± 0.014 nM

SMILES: CC(C)(C#Cc1ccc(-c2ccc(Cl)c3c(NS(C)(=O)=O)nn(CC(F)(F)F)c23)c([C@H](Cc2cc(F)cc(F)c2)NC(=O)Cn2nc(C(F)(F)F)c3c2C(F)(F)[C@@H]2C[C@H]32)n1)S(C)(=O)=O [LEN, Lenacapavir]
- EC50 (HIV-1NL4-3 Q67H/N74D CA): 24.2 nM
- susceptibility of the virus to the inhibitor (HIV-1(M66I CA)): fully resistant
- EC50 (HIV-1NL4-3 Q67H CA): 0.611 ± 0.01 nM
- decreased potency of the inhibitor with respect to the CA variant (HIV-1NL4-3 Q67H CA; Q67H CA variant versus WT): 7 fold
- EC50 (HIV-1NL4-3 Q67H/K70R CA): 1.5 ± 0.023 nM
- association rate constant (kon) ([1]; CA (Q67H/N74D), mean ± SD): 3.0 ± 0.9 x 10^4 M^-1s^-1
- dissociation rate constant (koff) ([1]; CA (Q67H/N74D), mean ± SD): 1.1 ± 0.5 x 10^-3 s^-1
- Kd ([1]; CA (Q67H/N74D), mean ± SD, read-out: equilibrium dissociation constant (KD)): 34.1 nM
- koff fold change ([1]; Q67H/N74D CA compared to WT CA): 73 fold
- kon fold change ([1]; Q67H/N74D CA compared to WT CA): 0.4 fold
- association rate constant (kon) ([3]; CA (Q67H), mean ± SD): 6.4 ± 1.1 x 10^4 M^-1s^-1
- dissociation rate constant (koff) ([3]; CA (Q67H), mean ± SD): 7.3 ± 1.0 x 10^-5 s^-1
- Kd ([3]; CA (Q67H), mean ± SD, read-out: equilibrium dissociation constant (KD)): 1.2 nM
- koff fold change ([3]; Q67H CA compared to WT CA): 5 fold
- kon fold change ([3]; Q67H CA compared to WT CA): 0.9 fold
- association rate constant (kon) ([2]; CA (WT), mean ± SD): 7.0 ± 1.6 x 10^4 M^-1s^-1
- dissociation rate constant (koff) ([2]; CA (WT), mean ± SD): 1.5 ± 0.2 x 10^-5 s^-1
- Kd ([2]; CA (WT), mean ± SD, three independent experiments, read-out: equilibrium dissociation constant (KD)): 0.23 ± 0.08 nM
- KD fold change [2, 6]: 1 fold
- koff fold change [2, 6]: 1 fold
- kon fold change [2, 6]: 1 fold
- EC50 [4]: 5 to 50 nM
- EC50 (HIV-1NL4-3 WT CA): 0.091 ± 0.01 nM
- EC50 (HIV-1 nuclear import): 0.5 to 5 nM
- EC50 (HIV-1NL4-3 N74D CA): 0.902 ± 0.027 nM
- decreased virus susceptibility to the inhibitor (HIV-1NL4-3 N74D CA; {}): ~ 10 fold
- EC50 (HIV-1 integration): 0.05 to 0.5 nM
- association rate constant (kon) ([5]; CA (N74D), mean ± SD): 3.0 ± 0.3 x 10^4 M^-1s^-1
- dissociation rate constant (koff) ([5]; CA (N74D), mean ± SD): 1.4 ± 0.02 x 10^-4 s^-1
- Kd ([5]; CA (N74D), mean ± SD, read-out: equilibrium dissociation constant (KD)): 4.6 nM
- koff fold change ([5]; N74D CA compared to WT CA): ~ 10 fold and 9 fold
- kon fold change ([5]; N74D CA compared to WT CA): 0.4 fold
- adverse effect on association rate constant ([5]; N74D CA versus WT CA, stated as fold adverse effect): ~ 2 fold

Source: paper PMC9600929, “Structural and Mechanistic Bases of Viral Resistance to HIV-1 Capsid Inhibitor Lenacapavir” (mBio, 2022)
